{"source": "patent US11767341B2", "about": "“Lincosamide antibiotics and uses thereof” (President and Fellows of Harvard College, priority 2017, dated 2023)"}
{"tested_on": "S. aureus BAA 977 iErmA", "assay": "MIC determination", "assay_type": "cell-based", "conditions": "Staphylococcus aureus, BAA977", "units": {"MIC": "µg/mL"}}
{"smiles": "CSC1O[C@H]([C@H](NC(=O)[C@H]2NC[C@@H]3C=C(c4ccccc4F)CCO[C@@H]23)[C@H](C)Cl)C(O)[C@@H](O)[C@H]1O", "note": "(stereo partly shown) [FSA-511073]", "MIC": 1}
{"tested_on": "S. aureus MP-549 msr(a) USA 300", "assay": "MIC determination", "assay_type": "cell-based", "conditions": "Staphylococcus aureus, USA300, S. aureus MP-549 msr(a) USA 300", "units": {"MIC": "µg/mL"}}
{"smiles": "CSC1O[C@H]([C@H](NC(=O)[C@H]2NC[C@@H]3C=C(c4ccccc4F)CCO[C@@H]23)[C@H](C)Cl)C(O)[C@@H](O)[C@H]1O", "note": "(stereo partly shown) [FSA-511073]", "MIC": 1}
{"tested_on": "S. pneumoniae MMX 3028 cErmB", "assay": "MIC determination", "assay_type": "cell-based", "conditions": "Streptococcus pneumoniae, MMX3028CERMB", "units": {"MIC": "µg/mL"}}
{"smiles": "CSC1O[C@H]([C@H](NC(=O)[C@H]2NC[C@@H]3C=C(c4ccccc4F)CCO[C@@H]23)[C@H](C)Cl)C(O)[C@@H](O)[C@H]1O", "note": "(stereo partly shown) [FSA-511073]", "MIC": 64}
{"tested_on": "E. faecalis ATCC 29212", "assay": "MIC determination", "assay_type": "cell-based", "conditions": "Enterococcus faecalis, ATCC29212, read-out: MIC", "units": {"MIC": "µg/mL"}}
{"smiles": "CSC1O[C@H]([C@H](NC(=O)[C@H]2NC[C@@H]3C=C(c4ccccc4F)CCO[C@@H]23)[C@H](C)Cl)C(O)[C@@H](O)[C@H]1O", "note": "(stereo partly shown) [FSA-511073]", "MIC": 4}
{"tested_on": "K. pneumoniae ATCC 10031", "assay": "MIC determination", "assay_type": "cell-based", "conditions": "Klebsiella pneumoniae, ATCC10031", "units": {"MIC": "µg/mL"}}
{"smiles": "CSC1O[C@H]([C@H](NC(=O)[C@H]2NC[C@@H]3C=C(c4ccccc4F)CCO[C@@H]23)[C@H](C)Cl)C(O)[C@@H](O)[C@H]1O", "note": "(stereo partly shown) [FSA-511073]", "MIC": 64}
{"tested_on": "E. coli ATCC 25922", "assay": "MIC determination", "assay_type": "cell-based", "conditions": "Escherichia coli, ATCC25922, E. coli ATCC 25922; read-out: MIC", "units": {"MIC": "µg/mL"}}
{"smiles": "CSC1O[C@H]([C@H](NC(=O)[C@H]2NC[C@@H]3C=C(c4ccccc4F)CCO[C@@H]23)[C@H](C)Cl)C(O)[C@@H](O)[C@H]1O", "note": "(stereo partly shown) [FSA-511073]", "MIC": "> 64"}
{"tested_on": "S. aureus MMX 3035 cErmA", "assay": "MIC determination", "assay_type": "cell-based", "conditions": "Staphylococcus aureus, MMX3035CERMA; S. aureus MMX 3035 cErmA; read-out: MIC", "units": {"MIC": "µg/mL"}}
{"smiles": "CSC1O[C@H]([C@H](NC(=O)[C@H]2NC[C@@H]3C=C(c4ccccc4F)CCO[C@@H]23)[C@H](C)Cl)C(O)[C@@H](O)[C@H]1O", "note": "(stereo partly shown) [FSA-511073]", "MIC": "> 64"}
{"tested_on": "S. pyogenes ATCC 19615", "assay": "MIC determination", "assay_type": "cell-based", "conditions": "Streptococcus pyogenes, ATCC19615; S. pyogenes ATCC 19615; read-out: MIC", "units": {"MIC": "µg/mL"}}
{"smiles": "CSC1O[C@H]([C@H](NC(=O)[C@H]2NC[C@@H]3C=C(c4ccccc4F)CCO[C@@H]23)[C@H](C)Cl)C(O)[C@@H](O)[C@H]1O", "note": "(stereo partly shown) [FSA-511073]", "MIC": 0.25}
{"tested_on": "E. faecalis MMX 847 Macrolide-Resistant", "assay": "MIC determination", "assay_type": "cell-based", "conditions": "Enterococcus faecalis; E. faecalis MMX 847 Macrolide-Resistant (MacRes); read-out: MIC", "units": {"MIC": "µg/mL"}}
{"smiles": "CSC1O[C@H]([C@H](NC(=O)[C@H]2NC[C@@H]3C=C(c4ccccc4F)CCO[C@@H]23)[C@H](C)Cl)C(O)[C@@H](O)[C@H]1O", "note": "(stereo partly shown) [FSA-511073]", "MIC": "> 64"}
{"tested_on": "S. aureus ATCC 29213", "assay": "MIC determination", "assay_type": "cell-based", "conditions": "Staphylococcus aureus, ATCC29213, S. aureus ATCC 29213; read-out: MIC", "units": {"MIC": "µg/mL"}}
{"smiles": "CSC1O[C@H]([C@H](NC(=O)[C@H]2NC[C@@H]3C=C(c4ccccc4F)CCO[C@@H]23)[C@H](C)Cl)C(O)[C@@H](O)[C@H]1O", "note": "(stereo partly shown) [FSA-511073]", "MIC": 1}
{"tested_on": "E. coli MP-9 ΔTolC", "assay": "MIC determination", "assay_type": "cell-based", "conditions": "Escherichia coli", "units": {"MIC": "µg/mL"}}
{"smiles": "CSC1O[C@H]([C@H](NC(=O)[C@H]2NC[C@@H]3C=C(c4ccccc4F)CCO[C@@H]23)[C@H](C)Cl)C(O)[C@@H](O)[C@H]1O", "note": "(stereo partly shown) [FSA-511073]", "MIC": 64}
{"tested_on": "S. pneumoniae ATCC 49619", "assay": "MIC determination", "assay_type": "cell-based", "conditions": "Streptococcus pneumoniae, ATCC49619; S. pneumoniae ATCC 49619; read-out: MIC", "units": {"MIC": "µg/mL"}}
{"smiles": "CSC1O[C@H]([C@H](NC(=O)[C@H]2NC[C@@H]3C=C(c4ccccc4F)CCO[C@@H]23)[C@H](C)Cl)C(O)[C@@H](O)[C@H]1O", "note": "(stereo partly shown) [FSA-511073]", "MIC": 0.12}
{"tested_on": "S. pyogenes MMX 946 Macrolide-Resistant", "assay": "MIC determination", "assay_type": "cell-based", "conditions": "Streptococcus pyogenes; S. pyogenes MMX 946 Macrolide-Resistant (MacRes); read-out: MIC", "units": {"MIC": "µg/mL"}}
{"smiles": "CSC1O[C@H]([C@H](NC(=O)[C@H]2NC[C@@H]3C=C(c4ccccc4F)CCO[C@@H]23)[C@H](C)Cl)C(O)[C@@H](O)[C@H]1O", "note": "(stereo partly shown) [FSA-511073]", "MIC": "> 64"}
{"tested_on": "H. influenzae ATCC 49247", "assay": "MIC determination", "assay_type": "cell-based", "conditions": "Haemophilus influenzae, ATCC49247; H. influenzae ATCC 49247; read-out: MIC", "units": {"MIC": "µg/mL"}}
{"smiles": "CSC1O[C@H]([C@H](NC(=O)[C@H]2NC[C@@H]3C=C(c4ccccc4F)CCO[C@@H]23)[C@H](C)Cl)C(O)[C@@H](O)[C@H]1O", "note": "(stereo partly shown) [FSA-511073]", "MIC": "> 64"}
{"tested_on": "E. coli MP-74 LptD mutant", "assay": "MIC determination", "assay_type": "cell-based", "conditions": "Escherichia coli", "units": {"MIC": "µg/mL"}}
{"smiles": "CSC1O[C@H]([C@H](NC(=O)[C@H]2NC[C@@H]3C=C(c4ccccc4F)CCO[C@@H]23)[C@H](C)Cl)C(O)[C@@H](O)[C@H]1O", "note": "(stereo partly shown) [FSA-511073]", "MIC": 64}
{"tested_on": "S. pneumoniae MMX 3031 cMefA", "assay": "MIC determination", "assay_type": "cell-based", "conditions": "Streptococcus pneumoniae, MMX3031CMEFA", "units": {"MIC": "µg/mL"}}
{"smiles": "CSC1O[C@H]([C@H](NC(=O)[C@H]2NC[C@@H]3C=C(c4ccccc4F)CCO[C@@H]23)[C@H](C)Cl)C(O)[C@@H](O)[C@H]1O", "note": "(stereo partly shown) [FSA-511073]", "MIC": 0.12}
